Source: patent US7232827B2, “Heteroaryl substituted 2-pyridinyl and 2-pyrimidinyl-6,7,8,9-tetrahydropyrimido[1,2-a]pyrimidin-4-one derivatives” (Sanofi-Aventis, priority 2002, dated 2007)

Molecular target: GSK3β (Homo sapiens, UniProt P49841)
Experiment: Inhibitory activity against GSK3β (33P-ATP phosphorylation of prephosphorylated GS1 peptide)
Assay type: biochemical
Conditions: single compounds; first or second protocol not specified
Protocol: Two different protocols can be used.
In a first protocol: 7.5 μM of prephosphorylated GS1 peptide and 10 μM ATP (containing 300,000 cpm of 33P-ATP) were incubated in 25 mM Tris-HCl, pH 7.5, 0.6 mM DTT, 6 mM MgCl2, 0.6 mM EGTA, 0.05 mg/ml BSA buffer for 1 hour at room temperature in the presence of GSK3β (total reaction volume: 100 microliters).
In a second protocol: 4.1 μM of prephosphorylated GS1 peptide and 42 μM ATP (containing 260,000 cpm 33P-ATP) were incubated in 80 mM Mes-NaOH, pH 6.5, 1 mM Mg acetate, 0.5 mM EGTA, 5 mM 2-mercaptoethanol, 0.02% Tween 20, 10% glycerol buffer for 2 hours at room temperature in the presence of GSK3β.
Inhibitors were solubilised in DMSO (final solvent concentration in the reaction medium, 1%).
The reaction was stopped with 100 microliters of a solution made of 25 g polyphosphoric acid (85% P2O5), 126 ml 85% H3PO4, H2O to 500 ml and then diluted to 1:100 before use. An aliquot of the reaction mixture was then transferred to Whatman P81 cation exchange filters and rinsed with the solution described above. Incorporated 33P radioactivity was determined by liquid scintillation spectrometry.
The phosphorylated GS-1 peptide had the following sequence: NH2-[…](P)EDEE-COOH.

Chain of GSK3β (P49841 whole entry, species assumed): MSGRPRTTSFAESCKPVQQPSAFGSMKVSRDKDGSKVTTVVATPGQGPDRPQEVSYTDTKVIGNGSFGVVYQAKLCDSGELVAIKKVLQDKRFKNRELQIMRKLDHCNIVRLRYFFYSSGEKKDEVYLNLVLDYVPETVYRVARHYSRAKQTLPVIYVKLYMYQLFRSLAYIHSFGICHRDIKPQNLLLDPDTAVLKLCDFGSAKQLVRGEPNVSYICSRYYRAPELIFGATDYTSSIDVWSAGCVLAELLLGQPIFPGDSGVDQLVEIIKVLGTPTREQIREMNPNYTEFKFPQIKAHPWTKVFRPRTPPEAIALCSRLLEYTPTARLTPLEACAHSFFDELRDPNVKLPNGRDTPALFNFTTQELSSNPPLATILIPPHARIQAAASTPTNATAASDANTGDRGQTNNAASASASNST

Row | SMILES | IC50 [nM]
1 | Cc1ccc2c(n1)CC(CN1CC(C)(C)Cn3c1nc(-c1ccncc1)cc3=O)C2 (racemic) [compound 4 of table 1A, (+/−)-7,7-Dimethyl-9-(2-methyl-6,7-dihydro-5H-[1]pyrindin-6-ylmethyl) -2-(pyridin-4-yl)-6,7,8,9-tetrahydro-pyrimido[1,2-a]pyrimidin-4-one] | 8
2 | CC1CCn2c(nc(-c3ccncn3)cc2=O)N1CC1COc2ccccc2O1 (centres unmarked) [compound 8 of table 2B, 9-(2,3-Dihydro-benzo[1,4]dioxin-2-ylmethyl)-8-methyl-2-pyrimidin-4-yl-6,7,8,9-tetrahydro-pyrimido[1,2-a]pyrimidin-4-one] | 15
